Holding throughout (assay type): cell-based
For one assay, the system named is Candida albicans 90028. The assay can be described thus: In vitro antifungal assay (Example IX), microdilution broth, MIC. The following applies: minimum inhibitory concentration (≥50% inhibition), 35° C., 40-48 h, RPMI1640. An outline of the steps:
(§1)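 CLSI broth microdilution in RPMI1640 with 2.5×10^3 cells/mL and final compound concentrations of 2-0.0019 μg/mL (1% DMSO). C. albicans 90028 plates were incubated at 35° C. for 40-48 h and C. neoformans H99 for 72 h. MIC was read as minimum inhibitory concentration, verified at 600 nm.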
A general note: Broth dilution looks for growth in wells or tubes with falling amounts of substance.

Assay [1] deals with Cryptococcus neoformans H99. The assay is described as above. The following applies: minimum inhibitory concentration (≥50% inhibition), 35° C., 72 h, RPMI1640. The procedure, abridged:
as §1

In assay [2] the test system is Aspergillus fumigatus MYA3626. Briefly: In vitro antifungal assay (Example IX), microdilution broth, MEC. Particulars: minimum effective concentration (shortening of hyphae), 35° C., 40-48 h, RPMI1640. An outline of the steps:
(§2)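 Spore suspensions of A. fumigatus and R. pusillus adjusted to 1-2×10^4 spores/mL in RPMI1640 and exposed to compound dilutions prepared in DMSO, by broth microdilution. MEC taken as the lowest concentration shortening hyphae versus DMSO control wells, read as for echinocandins.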

Assay [3] relates to Rhizomucor pusillus 46342. Described as above. Particulars: minimum effective concentration (shortening of hyphae), 35° C., 40-48 h, RPMI1640. The procedure, abridged: as §2
Another assay has as its system Cryptococcus gattii. The assay can be described thus: In vitro antifungal assay (Example IX), microdilution broth, MIC. Particulars: minimum inhibitory concentration (≥50% inhibition), 35° C., 72 h (Cryptococcus), RPMI1640. The procedure, abridged: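 Broth microdilution in RPMI1640 with 2.5×10^3 cells/mL inoculum; final compound concentrations were 2–0.0019 μg/mL, with 1% DMSO. Cryptococcus plates were incubated at 35 °C for 72 h, and growth was read at 600 nm to give the MIC.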

≈ marks a conversion by molar mass, not a printed value.

For five molecules, MIC and minimal effective concentration results are on record in US11512079B2, “Heterocycle substituted pyridine derivative antifungal agents” (Amplyx Pharmaceuticals, Inc., priority 2017, dated 2022).

The term MIC denotes the least concentration at which growth counts as inhibited. A lower MIC goes with inhibition by little substance. By minimal effective concentration is commonly meant the smallest amount tested that counted as effective. Read a low minimal effective concentration as an effect from little substance.

Turning to `Nc1ncccc1-c1cc(Cc2ccc(OCc3ccncc3)cc2)no1` [Example 139, 3-(3-(4-(pyridin-4-ylmethoxy)benzyl)isoxazol-5-yl)pyridin-2-amine], the figures for the MIC (against Candida albicans 90028; in assay [1]; with Cryptococcus gattii) were 0.01 to 0.1 µg/mL (≈ 0.0279 to 0.279 µM), 0.01 to 0.1 µg/mL (≈ 0.0279 to 0.279 µM) and at most 0.01 µg/mL, respectively. Further, the results for the minimal effective concentration in assay [2] and in assay [3] were 0.1 to 1 µg/mL and over 1 µg/mL, respectively.

Take `Nc1ncccc1-c1cc(Cc2ccc(Oc3ncc(Cl)cc3F)cc2)no1` [compound 236, 3-(3-(4-((5-chloro-3-fluoropyridin-2-yl)oxy)benzyl)isoxazol-5-yl)pyridin-2-amine]: the MIC (in the assay with Candida albicans 90028; in assay [1]; with Cryptococcus gattii) was 0.1 to 1 µg/mL (≈ 0.252 to 2.52 µM) throughout. The minimal effective concentration in assay [2] and in assay [3] was 0.1 to 1 µg/mL in each case.

Consider `Nc1ncccc1-c1cc(Cc2ccc(Nc3ccccc3)cc2)no1` [Example 144, 3-(3-(4-(phenylamino)benzyl)isoxazol-5-yl)pyridin-2-amine], for which the MIC (in the assay on Candida albicans 90028; in assay [1]; with Cryptococcus gattii) was 0.01 to 0.1 µg/mL (≈ 0.0292 to 0.292 µM) in each case. The minimal effective concentration is 0.01 to 0.1 µg/mL in assay [2] and 0.1 to 1 µg/mL in assay [3].

As for `Nc1ncccc1-c1cc(Cc2ccc(OCc3cnc4ccccc4n3)cc2)no1` [compound 30, 3-(3-(4-(quinoxalin-2-ylmethoxy)benzyl)isoxazol-5-yl)pyridin-2-amine], the MIC is 0.1 to 1 µg/mL (≈ 0.244 to 2.44 µM) with Candida albicans 90028, over 1 µg/mL in assay [1] and over 1 µg/mL against Cryptococcus gattii. For the same molecule, the minimal effective concentration in assay [2] was over 1 µg/mL; in assay [3], 0.1 to 1 µg/mL.

On to `Nc1ncccc1-c1cc(Cc2ccc(COc3ccccc3F)cc2)no1` [Example 168, 3-(3-(4-((2-fluorophenoxy)methyl)benzyl)isoxazol-5-yl)pyridin-2-amine], for which the MIC with Candida albicans 90028 lay in the range of 0.01 to 0.1 µg/mL (≈ 0.0266 to 0.266 µM); in assay [1], 0.1 to 1 µg/mL (≈ 0.266 to 2.66 µM); against Cryptococcus gattii, 0.01 to 0.1 µg/mL (≈ 0.0266 to 0.266 µM). For the same molecule, the minimal effective concentration in assay [2] is 0.01 to 0.1 µg/mL; in assay [3], 0.1 to 1 µg/mL.
